Laboratory results: article PMC7240968, “Synthesis and Biological Evaluation of Imidazo[2,1-b]Thiazole based Sulfonyl Piperazines as Novel Carbonic Anhydrase II Inhibitors” (Metabolites, 2020)

Key:
hCA I = molecular target: T1, hCA I (Homo sapiens, UniProt P00915); experiment: stopped flow CO2 hydrase assay, hCA I; assay type: biochemical; details: recombinant cytosolic isoform; mean from 3 different assays, errors ±5–10%
T1 construct: made in house
Description: (§1) The newly synthesized imidazo[2,1-b]thiazole-sulfonyl piperazines (9aa-ee) were screened for their CA inhibition activity against cytosolic (hCA I, hCA II) and the tumor associated (hCA IX, hCAXII) isoforms by a stopped flow CO2 hydrase assay.
(§2) The inhibition assay of selected CA isozymes was performed using SX.18V-R Applied Photophysics (Oxford, UK) stopped flow instrument. 10 mM Hepes (pH 7.4) as a buffer, with Phenol Red (at a concentration of 0.2 mM) as an indicator, 0.1M Na2SO4 or NaClO4 (To maintain the constant ionic strength; these anions are not inhibitory in the used concentration), following the CA-catalyzed CO2 hydration reaction for a period of 5–10 s. […] Stock solutions of inhibitors were prepared at a concentration of 10 mM (in DMSO-water 1:1 v/v) and dilutions up to 0.01 nM done with the assay buffer mentioned above. […] Inhibitor and enzyme solutions were pre-incubated together for 10 min at room temperature prior to assay, in order to allow for the formation of the E-I complex. […] The inhibition constants were obtained by non-linear least square methods using the Cheng-Prusoff equation, as reported earlier, [24, 25] and represent the mean from at least three different determinations. All CA isozymes used here were recombinant proteins obtained as reported earlier by our group.

hCA IX = molecular target: T2, hCA IX (Homo sapiens, UniProt Q16790); experiment: stopped flow CO2 hydrase assay, hCA IX; assay type: biochemical; details: recombinant tumor associated isoform; mean from 3 different assays, errors ±5–10%
T2 construct: made in house
Description: as §1, §2

hCA XII = molecular target: T3, hCA XII (Homo sapiens, UniProt O43570); experiment: stopped flow CO2 hydrase assay, hCA XII; assay type: biochemical; details: recombinant tumor associated isoform; mean from 3 different assays, errors ±5–10%
T3 construct: made in house
T3 sequence (O43570 25-354): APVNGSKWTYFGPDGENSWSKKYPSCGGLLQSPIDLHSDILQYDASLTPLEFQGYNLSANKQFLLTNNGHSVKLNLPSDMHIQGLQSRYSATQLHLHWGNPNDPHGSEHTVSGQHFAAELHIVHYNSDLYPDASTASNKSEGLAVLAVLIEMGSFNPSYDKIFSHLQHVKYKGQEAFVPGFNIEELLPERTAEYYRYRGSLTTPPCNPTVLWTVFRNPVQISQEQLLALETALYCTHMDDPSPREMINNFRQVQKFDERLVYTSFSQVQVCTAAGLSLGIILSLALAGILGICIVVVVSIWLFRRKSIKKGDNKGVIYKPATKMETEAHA
Description: as §1, §2

hCA II = molecular target: T4, hCA II (Homo sapiens, UniProt P00918); experiment: stopped flow CO2 hydrase assay, hCA II; assay type: biochemical; details: recombinant cytosolic isoform; mean from 3 different assays, errors ±5–10%
T4 construct: made in house
Description: as §1, §2

T1 sequence (P00915 whole entry, canonical isoform): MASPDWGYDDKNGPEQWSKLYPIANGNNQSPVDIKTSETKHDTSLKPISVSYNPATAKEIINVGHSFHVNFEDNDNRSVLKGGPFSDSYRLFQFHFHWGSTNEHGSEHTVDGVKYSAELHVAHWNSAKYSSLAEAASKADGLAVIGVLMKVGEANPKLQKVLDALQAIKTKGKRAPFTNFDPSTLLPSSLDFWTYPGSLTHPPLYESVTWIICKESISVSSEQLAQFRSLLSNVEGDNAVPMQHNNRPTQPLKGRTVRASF

## Cc1ccc(-c2cnc3sc(C(=O)N4CCN(S(=O)(=O)c5ccc(C(C)(C)C)cc5)CC4)cn23)cc1 [Compound 9bd, (4-((4-(Tert-butyl)phenyl)sulfonyl)piperazin-1-yl)(5-(p-tolyl)imidazo[2,1-b]thiazol-2-yl)methanone]
other
  melting point: 222 to 224 °C

## (4-((4-(Tert-butyl)phenyl)sulfonyl)piperazin-1-yl)(5-(4-chlorophenyl)imidazo[2,1-b]thiazol-2-yl)methanone [Compound 9ce]
hCA I
  Ki: > 100 µM
hCA IX
  Ki: > 100 µM
hCA XII
  Ki: > 100 µM
hCA II
  Ki: 62.1 µM

## (4-((4-(Tert-butyl)phenyl)sulfonyl)piperazin-1-yl)(5-(4-fluorophenyl)imidazo[2,1-b]thiazol-2-yl)methanone [Compound 9de]
hCA I
  Ki: > 100 µM
hCA IX
  Ki: > 100 µM
hCA XII
  Ki: > 100 µM
hCA II
  Ki: > 100 µM

## (4-((4-Chlorophenyl)sulfonyl)piperazin-1-yl)(5-(4-fluorophenyl)imidazo[2,1-b]thiazol-2-yl)methanone [Compound 9dc]
hCA I
  Ki: > 100 µM
hCA IX
  Ki: > 100 µM
hCA XII
  Ki: > 100 µM
hCA II
  Ki: 98.2 µM

## (4-((4-Chlorophenyl)sulfonyl)piperazin-1-yl)(5-phenylimidazo[2,1-b]thiazol-2-yl)methanone [Compound 9ec]
hCA I
  Ki: > 100 µM
hCA IX
  Ki: > 100 µM
hCA XII
  Ki: > 100 µM
hCA II
  Ki: > 100 µM

## (4-((4-Methoxyphenyl)sulfonyl)piperazin-1-yl)(5-(p-tolyl)imidazo[2,1-b]thiazol-2-yl)methanone [Compound 9ba]
hCA I
  Ki: > 100 µM
hCA IX
  Ki: > 100 µM
hCA XII
  Ki: > 100 µM
hCA II
  Ki: > 100 µM

## (4-((4-Methoxyphenyl)sulfonyl)piperazin-1-yl)(5-phenylimidazo[2,1-b]thiazol-2-yl)methanone [Compound 9ea]
hCA I
  Ki: > 100 µM
hCA IX
  Ki: > 100 µM
hCA XII
  Ki: > 100 µM
hCA II
  Ki: > 100 µM

## (5-(4-Chlorophenyl)imidazo[2,1-b]thiazol-2-yl)(4-((4-chlorophenyl)sulfonyl)piperazin-1-yl)methanone [Compound 9cc]
hCA I
  Ki: > 100 µM
hCA IX
  Ki: > 100 µM
hCA XII
  Ki: > 100 µM
hCA II
  Ki: 57.8 µM

## (5-(4-Chlorophenyl)imidazo[2,1-b]thiazol-2-yl)(4-((4-methoxyphenyl)sulfonyl)piperazin-1-yl)methanone [Compound 9ca]
hCA I
  Ki: > 100 µM
hCA IX
  Ki: > 100 µM
hCA XII
  Ki: > 100 µM
hCA II
  Ki: 79.9 µM

## (5-(4-Chlorophenyl)imidazo[2,1-b]thiazol-2-yl)(4-(phenylsulfonyl)piperazin-1-yl)methanone [Compound 9cd]
hCA I
  Ki: > 100 µM
hCA IX
  Ki: > 100 µM
hCA XII
  Ki: > 100 µM
hCA II
  Ki: 71.2 µM

## (5-(4-Chlorophenyl)imidazo[2,1-b]thiazol-2-yl)(4-tosylpiperazin-1-yl)methanone [Compound 9cb]
hCA I
  Ki: > 100 µM
hCA IX
  Ki: > 100 µM
hCA XII
  Ki: > 100 µM
hCA II
  Ki: > 100 µM

## (5-(4-Fluorophenyl)imidazo[2,1-b]thiazol-2-yl)(4-((4-methoxyphenyl)sulfonyl)piperazin-1-yl)methanone [Compound 9da]
hCA I
  Ki: > 100 µM
hCA IX
  Ki: > 100 µM
hCA XII
  Ki: > 100 µM
hCA II
  Ki: 67.9 µM

## (5-(4-Fluorophenyl)imidazo[2,1-b]thiazol-2-yl)(4-(phenylsulfonyl)piperazin-1-yl)methanone [Compound 9dd]
hCA I
  Ki: > 100 µM
hCA IX
  Ki: > 100 µM
hCA XII
  Ki: > 100 µM
hCA II
  Ki: > 100 µM

## (5-(4-Fluorophenyl)imidazo[2,1-b]thiazol-2-yl)(4-tosylpiperazin-1-yl)methanone [Compound 9db]
hCA I
  Ki: > 100 µM
hCA IX
  Ki: > 100 µM
hCA XII
  Ki: > 100 µM
hCA II
  Ki: > 100 µM

## (5-(4-Methoxyphenyl)imidazo[2,1-b]thiazol-2-yl)(4-((4-methoxyphenyl)sulfonyl)piperazin-1-yl)methanone [Compound 9aa]
hCA I
  Ki: > 100 µM
hCA IX
  Ki: > 100 µM
hCA XII
  Ki: > 100 µM
hCA II
  Ki: > 100 µM

## (5-(4-Methoxyphenyl)imidazo[2,1-b]thiazol-2-yl)(4-(phenylsulfonyl)piperazin-1-yl)methanone [Compound 9ad]
hCA I
  Ki: > 100 µM
hCA IX
  Ki: > 100 µM
hCA XII
  Ki: > 100 µM
hCA II
  Ki: > 100 µM

## (5-(p-Tolyl)imidazo[2,1-b]thiazol-2-yl)(4-tosylpiperazin-1-yl)methanone [Compound 9bb]
hCA I
  Ki: > 100 µM
hCA IX
  Ki: > 100 µM
hCA XII
  Ki: > 100 µM
hCA II
  Ki: 76.4 µM

## (5-Phenylimidazo[2,1-b]thiazol-2-yl)(4-(phenylsulfonyl)piperazin-1-yl)methanone [Compound 9ed]
hCA I
  Ki: > 100 µM
hCA IX
  Ki: > 100 µM
hCA XII
  Ki: > 100 µM
hCA II
  Ki: > 100 µM

## (5-Phenylimidazo[2,1-b]thiazol-2-yl)(4-tosylpiperazin-1-yl)methanone [Compound 9eb]
hCA I
  Ki: > 100 µM
hCA IX
  Ki: > 100 µM
hCA XII
  Ki: > 100 µM
hCA II
  Ki: > 100 µM
